pIC50: −log10 of the molar value.
Target: T1, Acetylcholinesterase (Rattus norvegicus, UniProt P37136)
T1 sequence (P37136 whole entry): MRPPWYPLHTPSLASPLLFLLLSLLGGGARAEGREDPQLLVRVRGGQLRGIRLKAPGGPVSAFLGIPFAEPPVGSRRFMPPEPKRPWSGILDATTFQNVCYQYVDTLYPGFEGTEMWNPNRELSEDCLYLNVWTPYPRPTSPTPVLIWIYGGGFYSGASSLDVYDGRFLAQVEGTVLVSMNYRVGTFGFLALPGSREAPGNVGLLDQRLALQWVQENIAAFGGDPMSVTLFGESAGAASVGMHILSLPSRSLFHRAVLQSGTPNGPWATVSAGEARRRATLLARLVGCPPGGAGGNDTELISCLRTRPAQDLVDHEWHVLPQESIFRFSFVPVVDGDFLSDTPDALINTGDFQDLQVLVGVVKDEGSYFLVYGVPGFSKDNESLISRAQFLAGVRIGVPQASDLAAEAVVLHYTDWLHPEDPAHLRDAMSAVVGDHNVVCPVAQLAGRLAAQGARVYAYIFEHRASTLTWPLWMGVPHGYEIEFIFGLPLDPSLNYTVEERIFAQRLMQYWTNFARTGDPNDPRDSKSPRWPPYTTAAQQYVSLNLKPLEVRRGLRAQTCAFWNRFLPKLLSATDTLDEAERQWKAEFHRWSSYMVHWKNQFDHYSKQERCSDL
Assay: Inhibition of Wistar rat brain AChE
Conditions: read-out: I50

With C=C(C)[C@H]1C/C=C(/C(=O)OC)C(O)C(=O)C[C@@](C)(O)CC2=CC(C(=O)OC)=C(C1)O2 (stereo partly specified) as the compound, how does the pIC50 read?
Its pIC50 is 4.20.
